Experimental data published in US20260256792A1, “TREATMENT OF CHRONIC SPONTANEOUS URTICARIA BY ADMINISTERING (R)-2-[3-[4-AMINO-3-(2-FLUORO-4-PHENOXY-PHENYL)PYRAZOLO[3,4-D]PYRIMIDIN-1-YL]PIPERIDINE-1-CARBONYL]-4-METHYL-4-[4-(OXETAN-3-YL)PIPERAZIN-1-YL]PENT-2-ENENITRILE” (priority 2023, published 2026).

Tested on: angioedema in CSU patients
Assay: Phase 2 CSU study: angioedema activity score over 7 days (AAS7)
Assay type: in vivo, human
Conditions: for Non-responder n (%), AAS7 = 0 / OR (95% CI) for rilzabrutinib vs. placebo, AAS7 = 0 / RRD (%) for rilzabrutinib vs. placebo (95% CI), AAS7 = 0 / Responder n (%), AAS7 = 0: outlier removed
Text: The study comprises a 12 week, randomized, double-blind, placebo-controlled, multi-center, dose-ranging efficacy and safety phase, followed by a 40 week open label extension (OLE) phase (see FIG. 1). The study consists of three phases and an optional OLE phase. […] The weekly angioedema activity score (AAS7) was proposed as a tertiary endpoint. […] Patients were to complete the AAS using the e-diary. The e-diary was to be used once daily on the same time of each day recording of participant's answers to the angioedema activity score over 7 days (AAS7) questionnaire.

[1] = 400 mg TID, Week 1, ITT, angioedema at baseline
[2] = 400 mg TID, Week 1, omalizumab-naïve
[3] = 400 mg TID, Week 1, omalizumab-naïve, angioedema at baseline
[4] = 400 mg TID, Week 2, ITT, angioedema at baseline
[5] = 400 mg TID, Week 2, omalizumab-naïve
[6] = 400 mg TID, Week 2, omalizumab-naïve, angioedema at baseline
[7] = 400 mg TID, Week 3, ITT, angioedema at baseline
[8] = 400 mg TID, Week 3, omalizumab-naïve
[9] = 400 mg TID, Week 3, omalizumab-naïve, angioedema at baseline
[10] = 400 mg TID, Week 4, ITT, angioedema at baseline
[11] = 400 mg TID, Week 4, omalizumab-naïve

CC(C)(C=C(C#N)C(=O)N1CCC[C@@H](n2nc(-c3ccc(Oc4ccccc4)cc3F)c3c(N)ncnc32)C1)N1CCN(C2COC2)CC1 [rilzabrutinib, (R)-2-[3-[4-amino-3-(2-fluoro-4-phenoxy-phenyl)pyrazolo[3,4-d]pyrimidin-1-yl]piperidine-1-carbonyl]-4-methyl-4-[4-(oxetan-3-yl)piperazin-1-yl]pent-2-enenitrile] was tested, and the “Participants with AAS7 = 0, Responder n (%)” value (“Participants … (%)” below) (400 mg QPM, Week 12, omalizumab-naïve, angioedema at baseline) was 6 (22.2) n (%), the “LS mean change from baseline in AAS7 at Week 12” value (400 mg TID, ITT population, angioedema at baseline) was −43.36 points and the “AAS7 % Change difference for rilzabrutinib vs. placebo LS Mean (95% CI)” value (from here on “AAS7 % Change difference … (95% CI)”) [1] was −34.55 (−66.00, −3.09) %. For the same compound, the “AAS7 % Change from baseline LS Mean (SE)” value [1] was −54.51 (9.77) %, the “AAS7 Change difference for rilzabrutinib vs. placebo LS Mean (95% CI)” value (“AAS7 Change difference … (95% CI)” for short) [1] was −15.05 (−28.44, −1.67) and the “AAS7 Change from baseline LS Mean (SE)” value [1] was −29.55 (4.16). The “AAS7 Post-baseline Mean (SD)” value [1] was 17.50 (22.29), the “Non-responder n (%), AAS7 = 0” value [2] was 16 (47.1) n (%) and the “OR (95% CI) for rilzabrutinib vs. placebo, AAS7 = 0” value [2] was 2.576. The “RRD (%) for rilzabrutinib vs. placebo (95% CI), AAS7 = 0” value (“RRD (%) … (95% CI), AAS7 = 0” below) [2] was 21.8 %, the “Responder n (%), AAS7 = 0” value [2] was 18 (52.9) n (%) and the “AAS7 % Change difference … (95% CI)” value [3] was −36.35 (−71.01, −1.69) %. For the same compound, the “AAS7 % Change from baseline LS Mean (SE)” value [3] was −53.40 (10.59) %, the “AAS7 = 0, Non-responder n (%)” value [3] was 16 (69.6) n (%) and the “AAS7 = 0, OR (95% CI) for rilzabrutinib vs. placebo” value (shortened to “AAS7 = 0, OR (95% CI)”) [3] was 9.250. The “AAS7 = 0, RRD (%) for rilzabrutinib vs. placebo (95% CI)” value (shortened to “AAS7 = 0, RRD (%) … (95% CI)”) [3] was 21.8 %, the “AAS7 Change difference … (95% CI)” value [3] was −16.03 (−30.69, −1.38) and the “AAS7 Change from baseline LS Mean (SE)” value [3] was −29.80 (4.48). The “AAS7 Post-baseline Mean (SD)” value [3] was 18.96 (23.24), the “Participants … (%)” value [3] was 7 (30.4) n (%) and the “AAS7 % Change from baseline LS Mean (SE)” value [4] was −60.12 (12.38) %. For the same compound, the “AAS7 Change difference … (95% CI)” value [4] was −11.45 (−23.02, 0.12), the “AAS7 Change from baseline LS Mean (SE)” value [4] was −32.35 (4.37) and the “AAS7 Post-baseline Mean (SD)” value [4] was 15.52 (20.15). For the same compound, the “Non-responder n (%), AAS7 = 0” value [5] was 16 (47.1) n (%), the “OR (95% CI) for rilzabrutinib vs. placebo, AAS7 = 0” value [5] was 1.556 and the “RRD (%) … (95% CI), AAS7 = 0” value [5] was 10.2 %. The “Responder n (%), AAS7 = 0” value [5] was 18 (52.9) n (%), the “AAS7 % Change difference … (95% CI)” value [6] was −22.03 (−57.92, 13.85) % and the “AAS7 % Change from baseline LS Mean (SE)” value [6] was −59.25 (13.33) %. For the same compound, the “AAS7 = 0, Non-responder n (%)” value [6] was 14 (60.9) n (%), the “AAS7 = 0, OR (95% CI)” value [6] was 1.922 and the “AAS7 = 0, RRD (%) … (95% CI)” value [6] was 12.9 %. The “AAS7 Post-baseline Mean (SD)” value [6] was 17.03 (20.90), the “Participants … (%)” value [6] was 9 (39.1) n (%) and the “AAS7 % Change difference … (95% CI)” value [7] was −24.93 (−66.27, 16.41) %. The “AAS7 % Change from baseline LS Mean (SE)” value [7] was −73.45 (15.58) %, the “AAS7 Change difference … (95% CI)” value [7] was −12.00 (−23.87, −0.13) and the “AAS7 Change from baseline LS Mean (SE)” value [7] was −36.15 (4.48). The “AAS7 Post-baseline Mean (SD)” value [7] was 13.26 (21.30), the “Non-responder n (%), AAS7 = 0” value [8] was 12 (35.3) n (%) and the “OR (95% CI) for rilzabrutinib vs. placebo, AAS7 = 0” value [8] was 3.010. For the same compound, the “RRD (%) … (95% CI), AAS7 = 0” value [8] was 26.5 %, the “Responder n (%), AAS7 = 0” value [8] was 22 (64.7) n (%) and the “AAS7 % Change difference … (95% CI)” value [9] was −25.10 (−70.77, 20.57) %. The “AAS7 % Change from baseline LS Mean (SE)” value [9] was −72.78 (16.93) %, the “AAS7 = 0, Non-responder n (%)” value [9] was 11 (47.8) n (%) and the “AAS7 = 0, OR (95% CI)” value [9] was 3.063. The “AAS7 = 0, RRD (%) … (95% CI)” value [9] was 22.5 %, the “AAS7 Post-baseline Mean (SD)” value [9] was 14.08 (22.48) and the “Participants … (%)” value [9] was 12 (52.2) n (%). For the same compound, the “AAS7 % Change difference … (95% CI)” value [10] was −41.77 (−78.55, −4.98) %, the “AAS7 % Change from baseline LS Mean (SE)” value [10] was −78.35 (13.78) % and the “AAS7 Change difference … (95% CI)” value [10] was −15.67 (−27.11, −4.22). For the same compound, the “AAS7 Change from baseline LS Mean (SE)” value [10] was −38.27 (4.30), the “AAS7 Post-baseline Mean (SD)” value [10] was 11.20 (15.95) and the “Non-responder n (%), AAS7 = 0” value [11] was 18 (52.9) n (%). For the same compound, the “RRD (%) … (95% CI), AAS7 = 0” value [11] was 1.1 % and the “Responder n (%), AAS7 = 0” value [11] was 16 (47.1) n (%).
